Patent US20020147196A1, “Composition and method for treating neuropathic pain” (priority 2001, published 2002)

What was measured:
Assay type in all cases: in vivo, rat
[1] = system: CCI-induced decrease in mechanical paw withdrawal threshold; test: chronic constriction injury (CCI) model of neuropathic pain: mechanical paw withdrawal threshold measured with an algesymeter; details: for known minimum effective dose in the CCI model: b.i.d. p.o., shown previously to have efficacy in the CCI model
Procedure: (§1) All experiments were performed using the chronic constriction injury (CCI) model of neuropathic pain in the rat. Under isoflurane anaesthesia, the common left sciatic nerve of male random hooded rats (180-220 g) was exposed at mid thigh level. Four ligatures of chromic gut (4.0) were tied loosely around the nerve with a 1 mm spacing between each. The wound was then closed and secured with suture clips. The surgical procedure was identical for the sham operated animals except the sciatic nerve was not ligated. The animals were allowed a period of 10 days to recover from the surgery before any behavioural testing began. The effect of the test compound on CCI-induced decrease in mechanical paw withdrawal threshold was measured using an algesymeter (Randall & Selitto, 1957). The presence of mechanical allodynia was assessed using Von Frey hair mono filaments (range: 4.19-84.96 g). The rats were lightly restrained and placed upon a metal grid floor, from below which the monofilaments were applied to the plantar surface of the hindpaws. The lowest monofilament to produce a withdrawal was the response recorded.
(§2) All data were expressed as mean±s.e.mean. Statistical analysis was carried out to compare the difference between the drug treated group and vehicle treated groups using unpaired Student's t-test (P<0.05 considered significant).

[2] = system: CCI-induced tactile allodynia; test: CCI model of neuropathic pain: mechanical (tactile) allodynia assessed with Von Frey hair monofilaments
Procedure: as §1, §2

[3] = observation of adverse side effects during chronic dosing in the CCI experiments
Procedure: Lamotrigine (30 mgkg^−1 b.i.d. p.o.) was dosed chronically for a period of 12 days. The dose chosen was determined from previous “in-house” data and doses believed to be efficacious in the clinical treatment of neuropathic pain.
Bupropion (10 mgkg^−1 b.i.d. p.o.) was dosed chronically for a period of 8 days. The dose chosen reflects both previous “in-house” data and that which is believed to be efficacious in the clinical treatment of neuropathic pain.

[4] = bupropion 10 mgkg^−1 b.i.d. p.o., days 47-54

| Structure (SMILES) | known minimum effective dose in the CCI model [1] [mgkg^−1] | effect on paw withdrawal thresholds in sham-operated rats ([1]; bupropion 10 mgkg^−1, first day of dosing only, 1 hour post dose, sham-operated rats) | reversal of the fall in paw withdrawal threshold back towards sham-operated levels after a single dose ([1]; bupropion 10 mgkg^−1, single dose) | reversal of paw withdrawal threshold during the chronic dosing period [1, 4] | time the reversal of paw withdrawal threshold was maintained following cessation of treatment [1, 4] [days] | reversal of tactile allodynia following cessation of treatment ([2]; bupropion 10 mgkg^−1 b.i.d. p.o., after cessation) | effect on tactile allodynia (Von Frey hair withdrawal threshold) during chronic dosing [2, 4] | day of maximal reversal of tactile allodynia ([2]; bupropion 10 mgkg^−1 b.i.d. p.o., days 47-54, last day of dosing) [days] | adverse side effects as a result of the surgery or chronic dosing schedule ([3]; bupropion 10 mgkg^−1 b.i.d. p.o. for 8 days) | reversal of the CCI-induced decrease in paw-withdrawal threshold to that of sham-operated animals ([1]; lamotrigine 30 mgkg^−1 twice daily p.o., days 13-24 post-operative) | post-operative day until which the analgesic effect was maintained following cessation of treatment ([1]; lamotrigine 30 mgkg^−1 twice daily p.o., dosing ended day 24) [day post-operative] | post-operative day by which the decrease in paw-withdrawal threshold was fully reversed ([1]; lamotrigine 30 mgkg^−1 twice daily p.o., dosing from day 13 post-operative) [days] | effect on CCI-induced tactile allodynia (Von Frey hair withdrawal threshold) during chronic dosing ([2]; lamotrigine 30 mgkg^−1 b.i.d. p.o.) | effect on tactile allodynia following cessation of treatment, compared to vehicle treated group ([2]; lamotrigine 30 mgkg^−1 b.i.d. p.o., after cessation) | adverse side effects as a result of the surgery or chronic dosing schedule ([3]; lamotrigine 30 mgkg^−1 b.i.d. p.o. for 12 days) |
| --- | --- | --- | --- | --- | --- | --- | --- | --- | --- | --- | --- | --- | --- | --- | --- |
| CC(NC(C)(C)C)C(=O)c1cccc(Cl)c1 (stereo not shown) [bupropion] | 10 | small effect | immediate reversal | maintained throughout the chronic dosing period | 4 | not maintained | some effect | 54 | No adverse side effects were observed | – | – | – | – | – | – |
| Nc1nnc(-c2cccc(Cl)c2Cl)c(N)n1 [lamotrigine] | 10 | – | – | – | – | – | – | – | – | fully reversed | 37 | ≤ 16 | transient reversal | small reversal | No adverse side effects were observed |
